Values quoted from earlier work as cited in patent US7756644B2, “System and method for automated selection of T-cell epitopes” (priority 2005, dated 2010).

System: memory T-cells isolated from HLA-B7-positive EBV-seropositive individuals
Settings: PNAS 1999

**Q.** Which “recognition by memory T-cells / immunogenicity” value does the source give for “QPRAPIRPI (EBNA 3C.881 peptide from Epstein-Barr virus)” here?
**A.** Its value is “is not”.

**Q.** With RPPIFIRRL [EBNA 3A.379] as the sequence, how does the “recognition by memory T-cells / immunogenicity” value read?
**A.** The value was “recognized”.
